Experimental data as given in patent publication US20230077362A1 (CORTEVA AGRISCIENCE LLC, priority 2019, published 2023).
Where two headings read alike, the source gives them in different places.

Experiments:
Assay type in all cases: in vivo
[1] = test system: Green Peach Aphid ("GPA") (Myzus persicae), wingless adult and nymph stages; experiment: Bioassay on green peach aphid (GPA), foliar spray on infested cabbage seedlings; settings: Myzus persicae, foliar, 72 h
Outline: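 Cabbage seedlings with 2-3 true leaves, infested one day earlier with 20-50 wingless adult and nymph GPA, sprayed to runoff on both leaf sides; solvent check held 20% acetone/methanol (1:1). Live aphids counted after three days at about 25° C; corrected % control = 100*(X−Y)/X versus solvent check.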

[2] = test system: Cabbage Looper (Trichoplusia ni) ("CL"), second instar larvae; experiment: Bioassay on cabbage looper (CL), 128-well diet tray assay; settings: Trichoplusia ni
Outline: (§1)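 After sealing with a clear self-adhesive lid, the trays are incubated at 25° C. with 14 h light and 10 h dark for 5 to 7 days; mortality in each well is recorded as a percentage and averaged across the eight wells.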

[3] = test system: Beet Armyworm (Spodoptera exigua) ("BAW"), second instar larvae; experiment: Bioassay on beet armyworm (BAW), 128-well diet tray assay; settings: Spodoptera exigua
Outline: as §1

[4] = read-out: GPA (Biological Results, rating)
[5] = read-out: CL (Biological Results, rating)
[6] = read-out: BAW (Biological Results, rating)

| SMILES | pest or weed control at 200 µg/mL [1, 4] [%] | pest or weed control at 50 µg/cm2 [2, 5] [%] | pest or weed control at 50 µg/cm2 [3, 6] [%] | pest or weed control at 200 µg/mL ([1]; read-out: GPA rating) [%] | pest or weed control at 50 µg/cm2 ([2]; read-out: CL rating) [%] | pest or weed control at 50 µg/cm2 ([3]; read-out: BAW rating) [%] |
| --- | --- | --- | --- | --- | --- | --- |
| Cc1ccc(OCCC(F)(F)F)c(N2C(=O)CS/C2=N\C(=O)Nc2ccc(-c3ncn(-c4ccc(OC(F)(F)F)cc4)n3)cc2)c1 [Compound J316, (Z)-1-(3-(5-Methyl-2-(3,3,3-trifluoropropoxy)phenyl)-4-oxothiazolidin-2-ylidene)-3-(4-(1-(4-(trifluoromethoxy)phenyl)-1H-1,2,4-triazol-3-yl)phenyl)urea] | 0 to 80 | 50 to 100 | 50 to 100 |  |  |  |
| CC(C)c1ccc(N(C)C)cc1N1C(=O)CS/C1=N\C(=O)Nc1ccc(-c2ncn(-c3ccc(OC(F)(F)F)cc3)n2)cc1F [Compound J318, (Z)-1-(3-(5-(Dimethylamino)-2-isopropylphenyl)-4-oxothiazolidin-2-ylidene)-3-(2-fluoro-4-(1-(4-(trifluoromethoxy)phenyl)-1H-1,2,4-triazol-3-yl)phenyl)urea] | 0 to 80 | 50 to 100 | 50 to 100 |  |  |  |
| CC(C)c1ccc(N(C)C)cc1N1C(=O)CS/C1=N\C(=O)Nc1ccc(-c2ncn(-c3ccc(OC(F)(F)F)cc3)n2)cc1 [Compound J319, (Z)-1-(3-(5-(Dimethylamino)-2-isopropylphenyl)-4-oxothiazolidin-2-ylidene)-3-(4-(1-(4-(trifluoromethoxy)phenyl)-1H-1,2,4-triazol-3-yl)phenyl)urea] | 0 to 80 | 50 to 100 | 50 to 100 |  |  |  |
| COc1ccc(C(C)C)c(N2C(=O)CS/C2=N\C(=O)Nc2ccc(-c3ncn(-c4cccc(C(F)(F)F)c4)n3)cc2)c1 [Compound J324, (Z)-1-(3-(2-Isopropyl-5-methoxyphenyl)-4-oxothiazolidin-2-ylidene)-3-(4-(1-(3-(trifluoromethyl)phenyl)-1H-1,2,4-triazol-3-yl)phenyl)urea] | 0 to 80 | 50 to 100 | 50 to 100 |  |  |  |
| CC(C)c1ccc(N(C)C)cc1N1C(=O)CS/C1=N\C(=O)Nc1ccc(-c2ncn(-c3cccc(C(F)(F)F)c3)n2)cc1 [Compound J325, (Z)-1-(3-(5-(Dimethylamino)-2-isopropylphenyl)-4-oxothiazolidin-2-ylidene)-3-(4-(1-(3-(trifluoromethyl)phenyl)-1H-1,2,4-triazol-3-yl)phenyl)urea] | 0 to 80 | 50 to 100 | 50 to 100 |  |  |  |
| Cc1ccc(OCCC(F)(F)F)c(N2C(=O)CS/C2=N\C(=O)Nc2ccc(-c3ncn(-c4cccc(C(F)(F)F)c4)n3)cc2)c1 [Compound J326, (Z)-1-(3-(5-Methyl-2-(3,3,3-trifluoropropoxy)phenyl)-4-oxothiazolidin-2-ylidene)-3-(4-(1-(3-(trifluoromethyl)phenyl)-1H-1,2,4-triazol-3-yl)phenyl)urea] | 0 to 80 | 50 to 100 | 50 to 100 |  |  |  |
| Cc1ccc(C(C)C)c(N2C(=O)CS/C2=N\C(=O)Nc2ccc(-c3ncn(-c4cccc(OC(F)(F)F)c4)n3)cc2)c1 [Compound J327, (Z)-1-(3-(2-Isopropyl-5-methylphenyl)-4-oxothiazolidin-2-ylidene)-3-(4-(1-(3-(trifluoromethoxy)phenyl)-1H-1,2,4-triazol-3-yl)phenyl)urea] | 0 to 80 | 50 to 100 | 50 to 100 |  |  |  |
| COc1ccc(C(C)C)c(N2C(=O)CS/C2=N\C(=O)Nc2ccc(-c3ncn(-c4cccc(OC(F)(F)F)c4)n3)cc2)c1 [Compound J328, (Z)-1-(3-(2-Isopropyl-5-methoxyphenyl)-4-oxothiazolidin-2-ylidene)-3-(4-(1-(3-(trifluoromethoxy)phenyl)-1H-1,2,4-triazol-3-yl)phenyl)urea] | 0 to 80 | 50 to 100 | 50 to 100 |  |  |  |
| Cc1ccc(C(C)C)c(N2C(=O)CS/C2=N\C(=O)Nc2ccc(-c3ncn(-c4ccc(OCC#N)cc4)n3)cc2F)c1 [Compound J344, (Z)-1-(4-(1-(4-(Cyanomethoxy)phenyl)-1H-1,2,4-triazol-3-yl)-2-fluorophenyl)-3-(3-(2-isopropyl-5-methylphenyl)-4-oxothiazolidin-2-ylidene)urea] | 0 to 80 | 50 to 100 | 50 to 100 |  |  |  |
| COC(C)c1ccc(C)cc1N1C(=O)CS/C1=N\C(=O)Nc1ccc(-c2ncn(-c3ccc(SC(F)(F)F)cc3)n2)cc1 (stereo not drawn) [Compound J350, (Z)-1-(3-(2-(1-methoxyethyl)-5-methylphenyl)-4-oxothiazolidin-2-ylidene)-3-(4-(1-(4-((trifluoromethyl)thio)phenyl)-1H-1,2,4-triazol-3-yl)phenyl)urea] | 0 to 80 | 50 to 100 | 50 to 100 |  |  |  |
| COC(C)c1ccc(C)cc1N1C(=O)CS/C1=N\C(=O)Nc1ccc(-c2ncn(-c3ccc(S(=O)(=O)C(F)(F)F)cc3)n2)cc1C (stereo not drawn) [Compound J362, (Z)-1-(3-(2-(1-Methoxyethyl)-5-methylphenyl)-4-oxothiazolidin-2-ylidene)-3-(2-methyl-4-(1-(4-((trifluoromethyl)sulfonyl)phenyl)-1H-1,2,4-triazol-3-yl)phenyl)urea] |  |  |  | 0 to 80 | 50 to 100 | 50 to 100 |
| Cc1ccc(COCC(F)(F)F)c(N2C(=O)CS/C2=N\C(=O)Nc2ccc(-c3ncn(-c4ccc(S(=O)(=O)C(F)(F)F)cc4)n3)cc2F)c1 [Compound J363, (Z)-1-(2-Fluoro-4-(1-(4-((trifluoromethyl)sulfonyl)phenyl)-1H-1,2,4-triazol-3-yl)phenyl)-3-(3-(5-methyl-2-((2,2,2-trifluoroethoxy)methyl)phenyl)-4-oxothiazolidin-2-ylidene)urea] |  |  |  | 0 to 80 | 50 to 100 | 50 to 100 |
| CC(C)c1ccc(N(C)C)cc1N1C(=O)CS/C1=N\C(=O)Nc1ccc(-c2ncn(-c3ccc(S(=O)(=O)C(F)(F)F)cc3)n2)cc1F [Compound J364, (Z)-1-(3-(5-(Dimethylamino)-2-isopropylphenyl)-4-oxothiazolidin-2-ylidene)-3-(2-fluoro-4-(1-(4-((trifluoromethyl)sulfonyl)phenyl)-1H-1,2,4-triazol-3-yl)phenyl)urea] |  |  |  | 0 to 80 | 50 to 100 | 50 to 100 |
| Cc1ccc(COCC(F)(F)F)c(N2C(=O)CS/C2=N\C(=O)Nc2ccc(-c3ncn(-c4ccc(S(=O)(=O)C(F)(F)F)cc4)n3)cc2C)c1 [Compound J365, (Z)-1-(3-(5-Methyl-2-((2,2,2-trifluoroethoxy)methyl)phenyl)-4-oxothiazolidin-2-ylidene)-3-(2-methyl-4-(1-(4-((trifluoromethyl)sulfonyl)phenyl)-1H-1,2,4-triazol-3-yl)phenyl)urea] |  |  |  | 0 to 80 | 50 to 100 | 50 to 100 |
| Cc1cc(-c2ncn(-c3ccc(S(=O)(=O)C(F)(F)F)cc3)n2)ccc1NC(=O)/N=C1\SCC(=O)N1c1cc(N(C)C)ccc1C(C)C [Compound J366, (Z)-1-(3-(5-(Dimethylamino)-2-isopropylphenyl)-4-oxothiazolidin-2-ylidene)-3-(2-methyl-4-(1-(4-((trifluoromethyl)sulfonyl)phenyl)-1H-1,2,4-triazol-3-yl)phenyl)urea] |  |  |  | 0 to 80 | 50 to 100 | 50 to 100 |
| CC(C)c1ccc(N(C)C)cc1N1C(=O)CS/C1=N\C(=O)Nc1ccc(-c2ncn(-c3ccc(SC(F)(F)F)cc3)n2)cc1 [Compound J368, (Z)-1-(3-(5-(Dimethylamino)-2-isopropylphenyl)-4-oxothiazolidin-2-ylidene)-3-(4-(1-(4-((trifluoromethyl)thio)phenyl)-1H-1,2,4-triazol-3-yl)phenyl)urea] |  |  |  | 0 to 80 | 50 to 100 | 50 to 100 |
| Cc1ccc(COCc2ccc(OC(F)(F)F)cc2)c(N2C(=O)CS/C2=N\C(=O)Nc2ccc(-c3ncn(-c4ccc(OC(F)(F)F)cc4)n3)cc2F)c1 [Compound J570, (Z)-1-(2-Fluoro-4-(1-(4-(trifluoromethoxy)phenyl)-1H-1,2,4-triazol-3-yl)phenyl)-3-(3-(5-methyl-2-(((4-(trifluoromethoxy)benzyl)oxy)methyl)phenyl)-4-oxothiazolidin-2-ylidene)urea] |  |  |  | 0 to 80 | 50 to 100 | 50 to 100 |
| Cc1ccc(COCc2ccc(F)cc2)c(N2C(=O)CS/C2=N\C(=O)Nc2ccc(-c3ncn(-c4ccc(OC(F)(F)F)cc4)n3)cc2F)c1 [Compound J574, (Z)-1-(2-Fluoro-4-(1-(4-(trifluoromethoxy)phenyl)-1H-1,2,4-triazol-3-yl)phenyl)-3-(3-(2-(((4-fluorobenzyl)oxy)methyl)-5-methylphenyl)-4-oxothiazolidin-2-ylidene)urea] |  |  |  | 0 to 80 | 50 to 100 | 50 to 100 |
| CCOCc1ccc(C)cc1N1C(=O)CS/C1=N\C(=O)Nc1ccc(-c2cn(-c3ccc(S(=O)(=O)C(F)(F)F)cc3)cn2)cc1F [Compound J646, (Z)-1-(3-(2-(Ethoxymethyl)-5-methylphenyl)-4-oxothiazolidin-2-ylidene)-3-(2-fluoro-4-(1-(4-((trifluoromethyl)sulfonyl)phenyl)-1H-imidazol-4-yl)phenyl)urea] |  |  |  | 0 to 80 | 50 to 100 | 50 to 100 |
